In PubChem BioAssay (NCI):
“And” between values parts separate entries of the source, which are not always exact repeats. Identical values can stand only once.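 Tested at 5 concentrations; 48 h exposure; 96-well plates; endpoints linearly interpolated, else capped at highest concentration. At the GI50, growth is halved. TGI is the concentration that stops growth completely.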

Experiments:
Experiment in all cases: growth of human tumour cells (NCI), 48 h
COLO 205 colon = system: COLO 205 colon
DMS 114 small cell lung = system: DMS 114 small cell lung
HCT-116 colon = system: HCT-116 colon
HT29 colon = system: HT29 colon
KM12 colon = system: KM12 colon
UACC-62 melanoma = system: UACC-62 melanoma
DU-145 prostate = system: DU-145 prostate
RXF 393 renal = system: RXF 393 renal
SNB-75 CNS = system: SNB-75 CNS

Row | Compound | TGI (COLO 205 colon) | TGI (DMS 114 small cell lung) | TGI (HCT-116 colon) | TGI (HT29 colon) | TGI (KM12 colon) | TGI (UACC-62 melanoma) | GI50 (COLO 205 colon) | GI50 (DU-145 prostate) | TGI (DU-145 prostate) | GI50 (HCT-116 colon) | GI50 (HT29 colon) | GI50 (KM12 colon) | GI50 (RXF 393 renal) | TGI (RXF 393 renal) | GI50 (SNB-75 CNS) | TGI (SNB-75 CNS) | GI50 (UACC-62 melanoma)
1 | CC(=O)CC(=O)CCC(=O)Nc1cccc(C(F)(F)F)c1 | > 100 µM | > 100 µM | > 100 µM | > 100 µM | > 100 µM | > 100 µM | – | – | – | – | – | – | – | – | – | – | –
2 | N#CCNC(=O)c1ccc(-c2ccnc(Nc3ccc(N4CCOCC4)cc3)n2)cc1 | > 31.5 µM | – | > 24.8 µM | > 100 µM | > 74 µM | > 57.8 µM | 3.17 µM and 2.96 µM | 2.62 µM and 1.65 µM | > 100 µM | 1.49 µM and 1.19 µM | 5.71 µM and 5.38 µM | 3.23 µM and 3.85 µM | 1.11 µM and 0.345 µM | 3.09 µM and 1.7 µM | 0.621 µM and 0.186 µM | 5.6 µM and 4.17 µM | 4.44 µM and 3.66 µM
3 | COC1=C(OC)[C@]2(OC)c3c(O)c(OC)c4c(c3O[C@@]23O[C@@H](c2ccccc2)CC=C3C1=O)[C@@H](OC)C[C@H](c1ccccc1)O4 | 1.44 µM | – | 0.517 µM | 0.612 µM | 3.12 µM | 3.83 µM | 0.326 µM | 2.09 µM | 3.75 µM | 0.226 µM | 0.235 µM | 1.57 µM | 1.35 µM | 3.17 µM | 1.36 µM | 2.79 µM | 1.82 µM
4 | c1ccc(-c2csc3ncn4cnnc4c23)cc1 | > 100 µM | > 100 µM | > 100 µM | > 100 µM | > 100 µM | > 100 µM | – | – | – | – | – | – | – | – | – | 89.3 µM | –
5 | S=C(NCc1ccc2c(c1)OCO2)N1CCN(c2ncnc3c2oc2ccccc23)CC1 | > 100 µM | – | > 100 µM | > 100 µM | > 100 µM | > 100 µM | 66.1 µM | > 100 µM | > 100 µM | 3.68 µM | 18 µM | 36.7 µM | > 100 µM | > 100 µM | > 100 µM | > 100 µM | 14.1 µM
6 | Cc1cc(O)c2c3c(ccc2c1)C(=O)c1c(O)cccc1C3=O | 12.4 µM | – | > 100 µM | > 44.9 µM | > 37.8 µM | 13.6 µM | – | – | > 100 µM | – | – | – | – | > 100 µM | – | > 74.7 µM | –
7 | O=[N+]([O-])/C=C/c1ccc(Cl)cc1Cl | 38.9 µM | 35.8 µM | 13 µM | 21.8 µM | 29.6 µM | 31.3 µM | – | – | – | – | – | – | – | – | – | 34.8 µM | –
8 | N#C/C(=C\c1cc2ccc(N3CCC3)cc2oc1=O)C(=O)N(CC(=O)O)CC(=O)O | > 100 µM | – | > 100 µM | > 100 µM | > 100 µM | > 100 µM | > 100 µM | > 100 µM | > 100 µM | > 100 µM | > 100 µM | > 100 µM | > 100 µM | > 100 µM | > 100 µM | > 100 µM | > 100 µM
9 | COc1ccc(S(=O)(=O)N2CCNCC2)cc1OC | > 100 µM | – | > 100 µM | > 100 µM | > 100 µM | > 100 µM | > 100 µM | > 100 µM | > 100 µM | > 100 µM | > 100 µM | > 100 µM | > 100 µM | > 100 µM | > 100 µM | > 100 µM | > 100 µM
10 | N#Cc1cc2c(cc1Cl)Sc1nnc(Nc3cccc4ccccc34)n1S2(=O)=O | 4.52 µM | – | 14.2 µM | 12.7 µM | 10.1 µM | 5.28 µM | 2.34 µM | 3.66 µM | 12.9 µM | 3.98 µM | 3.96 µM | 2.99 µM | 2.02 µM | 4.15 µM | 6.43 µM | 18.2 µM | 2.14 µM
11 | COc1ccc(OC)c(Cc2cnc3nc(N)nc(N)c3c2C)c1 | > 52.6 µM | – | 30.4 µM | 20 µM | 20.7 µM | > 71.2 µM | – | – | > 59.8 µM | – | – | – | – | 21.9 µM | – | 21.3 µM | –
12 | [Cl][Cu][Cl] | > 10 µM | – | > 10 µM | > 10 µM | > 10 µM | > 10 µM | > 10 µM | > 10 µM | > 10 µM | > 10 µM | > 10 µM | > 10 µM | > 10 µM | > 10 µM | > 10 µM | > 10 µM | > 10 µM
13 | O=[N+]([O-])c1cc(Cc2cc([N+](=O)[O-])c3cccnc3c2O)c(O)c2ncccc12 | 56 µM | – | 16.9 µM | > 73.1 µM | 25.8 µM | 27.6 µM | – | – | 54 µM | – | – | – | – | 18 µM | – | 24.9 µM | –
14 | CC(C)N(Cc1ccc(F)cc1)c1ccc(CO)c(Cl)c1 | 7.17 µM | – | 3.75 µM | 14.1 µM | 23.4 µM | 0.4 µM | 1.03 µM | 11.1 µM | 23.3 µM | 0.0415 µM | 1.81 µM | 10.9 µM | 2.51 µM | 19.6 µM | 9.21 µM | 23.3 µM | 0.0664 µM
15 | NC(=O)CC(N)c1nn[nH]n1 (stereo not given) | > 100 µM | – | > 100 µM | > 100 µM | > 100 µM | > 100 µM | – | – | > 100 µM | – | – | – | – | > 100 µM | – | > 100 µM | –
16 | N#Cc1cccc(Nc2ncc(-c3ccccc3)o2)c1 | > 25 µM | – | > 25 µM | > 25 µM | > 25 µM | > 25 µM | 14.8 µM | 16 µM | > 25 µM | 9.02 µM | > 25 µM | 8.18 µM | 5.55 µM | 15.8 µM | 10.8 µM | > 22.6 µM | 13.1 µM
17 | COc1ccc2nc3cc(Cl)ccc3c(N3CCN(c4ccnc(N5CCN(C)CC5)n4)CC3)c2c1 | 3.67 µM | – | 3.05 µM | 3.67 µM | 4.38 µM | 3.69 µM | 1.94 µM | 1.84 µM | 3.36 µM | 1.61 µM | 1.74 µM | 2.09 µM | 1.36 µM | 2.78 µM | 1.47 µM | 3.05 µM | 1.86 µM
18 | CCOC(=O)C(Cc1ccc(N(CCCl)CCCl)cc1)NC(=O)C(Cc1ccccc1)NC(C)=O (stereo not given) | > 0.321 µM | – | > 0.388 µM | > 0.219 µM | > 0.565 µM | > 0.277 µM | – | – | > 1 µM | – | – | – | – | 0.259 µM | – | > 1 µM | –
